Six molecules from patent publication US9409966B2, “Glucagon-like peptide-1 derivatives and their pharmaceutical use” (priority 2007, dated 2016) can be followed below.

The structures appear in SMILES notation. *1 amine or outer side, *2 acyl side, *3 side chain or, on linkers, in order; H or OH if unused. Where a SMILES comes first, the peptide text is derived from it. Side-chain parts run from the residue outwards. [ ]: non-standard residue; d: D form. The star is where a group is joined. X1 = O=C(CCCCCCCCCCCCCCCc1nnn[nH]1)NS(=O)(=O)CCCC(=O)*; γGlu = O=C(O)[C@H](CCC(=O)[*:2])N[*:1]; 12Ado = NCCCCCCCCCCCC(=O)O; AEEA = NCCOCCOCC(=O)O; Aib = CC(C)(N)C(=O)O

One assay deals with T1, human GLP-1 receptor (Homo sapiens, UniProt P43220).
T1 construct: expressed in transfected cells; host or cells: BHK467-12A (tk-ts13) baby hamster kidney cells; purified plasma membranes
T1 sequence (P43220 24-463): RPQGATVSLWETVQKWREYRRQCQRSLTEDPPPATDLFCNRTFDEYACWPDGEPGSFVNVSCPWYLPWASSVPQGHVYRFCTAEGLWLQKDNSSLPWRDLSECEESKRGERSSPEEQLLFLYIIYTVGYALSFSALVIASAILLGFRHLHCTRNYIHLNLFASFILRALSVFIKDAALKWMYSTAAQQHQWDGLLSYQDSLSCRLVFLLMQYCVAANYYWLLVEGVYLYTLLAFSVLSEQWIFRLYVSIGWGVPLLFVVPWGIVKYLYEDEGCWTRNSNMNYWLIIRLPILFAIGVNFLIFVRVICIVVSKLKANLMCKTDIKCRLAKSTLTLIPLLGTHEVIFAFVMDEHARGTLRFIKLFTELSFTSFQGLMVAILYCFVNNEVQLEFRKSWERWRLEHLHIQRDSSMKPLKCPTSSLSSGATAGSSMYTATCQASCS
In words: Stimulation of cAMP formation in a cell line expressing the cloned human GLP-1 receptor. The class given is biochemical. As to conditions: cAMP production, purified plasma membranes from BHK467-12A (tk-ts13), AlphaScreen cAMP Assay Kit; read-out: Potency [EC50/nM]. On the technique in general: Changes in cAMP serve as a functional read-out for many G protein-coupled receptors.

Assay [1] has as its target human serum albumin (HSA) (Homo sapiens, UniProt P02768). Kind of assay: Albumin binding affinity, competition scintillation proximity assay (SPA).
Experimental: Streptavidin-SPA beads (GE Healthcare RPNQ0009) were incubated with biotinylated HSA for 5 hours. The beads were washed with buffer to remove unbound HSA. […] After 20 hours of gentle rocking at room temperature the plates were centrifuged and counted on a TopCounter.

Sequence of human serum albumin (HSA) (P02768 25-609): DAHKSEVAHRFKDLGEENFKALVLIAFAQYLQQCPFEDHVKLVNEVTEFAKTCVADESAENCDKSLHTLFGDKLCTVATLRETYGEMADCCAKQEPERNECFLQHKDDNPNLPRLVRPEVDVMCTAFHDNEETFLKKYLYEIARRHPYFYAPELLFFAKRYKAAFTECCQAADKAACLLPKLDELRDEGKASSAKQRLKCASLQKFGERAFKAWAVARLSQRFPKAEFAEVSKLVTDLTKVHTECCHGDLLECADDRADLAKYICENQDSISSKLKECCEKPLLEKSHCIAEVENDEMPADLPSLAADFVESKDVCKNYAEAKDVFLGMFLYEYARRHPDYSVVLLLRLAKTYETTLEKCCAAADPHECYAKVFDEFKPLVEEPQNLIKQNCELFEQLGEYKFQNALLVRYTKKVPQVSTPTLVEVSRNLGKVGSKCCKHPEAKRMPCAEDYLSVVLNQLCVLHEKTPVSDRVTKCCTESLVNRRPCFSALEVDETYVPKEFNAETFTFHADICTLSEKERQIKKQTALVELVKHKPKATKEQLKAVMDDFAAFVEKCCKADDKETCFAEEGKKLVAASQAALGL
Experimental for human GLP-1 receptor: A stable transfected cell line has been prepared at NN A/S, Denmark, and a high expressing clone was selected for screening. The cells were grown at 5% CO2 in DMEM, 5% FCS, 1% Pen/Strep (Penicillin/Streptomycin) and 0.5 mg/ml of the selection marker G418.
Cells at approximate 80% confluence were washed 2× with PBS (Phosphate Buffered Saline) and harvested with Versene (aqueous solution of the tetrasodium salt of ethylenediaminetetraacetic acid), centrifuged 5 min at 1000 rpm and the supernatant removed. The additional steps were all made on ice. […] Suspension in Buffer 2, homogenization and centrifugation was repeated once and the membranes were resuspended in Buffer 2 and ready for further analysis or stored at −80° C.
The functional receptor assay was carried out by measuring the peptide induced cAMP production by The AlphaScreen Technology. […] The capture of cAMP is achieved by using a specific antibody conjugated to acceptor beads. Formed cAMP was counted and measured at a AlphaFusion Microplate Analyzer. The EC50 values were calculated using the Graph-Pad Prisme software (version 5).

Consider `CC[C@H](C)[C@H](NC(=O)[C@H](Cc1ccccc1)NC(=O)[C@H](CCC(=O)O)NC(=O)[C@H](CCCNC(=N)N)NC(=O)[C@H](C)NC(=O)[C@H](C)NC(=O)[C@H](CCC(N)=O)NC(=O)[C@H](CCC(=O)O)NC(=O)[C@H](CCC(=O)O)NC(=O)[C@H](CC(C)C)NC(=O)[C@H](Cc1ccc(O)cc1)NC(=O)[C@H](CO)NC(=O)[C@H](CO)NC(=O)[C@@H](NC(=O)[C@H](CC(=O)O)NC(=O)[C@H](CO)NC(=O)[C@@H](NC(=O)[C@H](Cc1ccccc1)NC(=O)[C@@H](NC(=O)CNC(=O)[C@H](CCC(=O)O)NC(=O)C(C)(C)NC(=O)[C@@H](N)Cc1c[nH]cn1)[C@@H](C)O)[C@@H](C)O)C(C)C)C(=O)N[C@@H](C)C(=O)N[C@@H](Cc1c[nH]c2ccccc12)C(=O)N[C@@H](CC(C)C)C(=O)N[C@H](C(=O)N[C@@H](CCCNC(=N)N)C(=O)NCC(=O)N[C@@H](CCCNC(=N)N)C(=O)N[C@@H](CCCCNC(=O)COCCOCCNC(=O)COCCOCCNC(=O)CC[C@H](NC(=O)[C@H]1CC[C@H](CNC(=O)CCCCCCCCCCCCCCCCCCC(=O)O)CC1)C(=O)O)C(N)=O)C(C)C` [Example 7, N-epsilon37-[2-(2-{2-[2-(2-{2-[(S)-4-Carboxy-4-({trans-4-[(19-carboxy-nonadecanoylamino)methyl]cyclohexanecarbonyl}amino)butyrylamino]ethoxy}ethoxy)acetylamino]ethoxy}ethoxy)acetyl][Aib8,Glu22,Arg26,Arg34,Lys37]GLP-1-(7-37)amide], for which the EC50 is 0.58 nM on human GLP-1 receptor and 800 to 1500 nM in assay [1].
With `CC[C@H](C)[C@H](NC(=O)[C@H](Cc1ccccc1)NC(=O)[C@H](CCC(=O)O)NC(=O)[C@H](CCCNC(=N)N)NC(=O)[C@H](C)NC(=O)[C@H](C)NC(=O)[C@H](CCC(N)=O)NC(=O)[C@H](CCC(=O)O)NC(=O)[C@H](CCC(=O)O)NC(=O)[C@H](CC(C)C)NC(=O)[C@H](Cc1ccc(O)cc1)NC(=O)[C@H](CO)NC(=O)[C@H](CO)NC(=O)[C@@H](NC(=O)[C@H](CC(=O)O)NC(=O)[C@H](CO)NC(=O)[C@@H](NC(=O)[C@H](Cc1ccccc1)NC(=O)[C@@H](NC(=O)CNC(=O)[C@H](CCC(=O)O)NC(=O)[C@H](C)NC(=O)CCc1c[nH]cn1)[C@@H](C)O)[C@@H](C)O)C(C)C)C(=O)N[C@@H](C)C(=O)N[C@@H](Cc1c[nH]c2ccccc12)C(=O)N[C@@H](CC(C)C)C(=O)N[C@H](C(=O)N[C@@H](CCCNC(=N)N)C(=O)NCC(=O)N[C@@H](CCCNC(=N)N)C(=O)N[C@@H](CCCCNC(=O)COCCOCCNC(=O)COCCOCCNC(=O)CC[C@H](NC(=O)[C@H]1CC[C@H](CNC(=O)CCCCCCCCCCCCCCCCCCC(=O)O)CC1)C(=O)O)C(N)=O)C(C)C` [Example 8, N-epsilon37-[2-(2-{2-[2-(2-{2-[(S)-4-Carboxy-4-({trans-4-[(19-carboxy-nonadecanoylamino)methyl]cyclohexanecarbonyl}amino)butyrylamino]ethoxy}ethoxy)acetylamino]ethoxy}ethoxy)acetyl][DesaminoHis7,Glu22,Arg26,Arg34,Lys37]GLP-1-(7-37)amide], the EC50 on human GLP-1 receptor was 0.66 nM; in assay [1], 1500 to 2000 nM.
Regarding `CC[C@H](C)[C@H](NC(=O)[C@H](Cc1ccccc1)NC(=O)[C@H](CCC(=O)O)NC(=O)[C@H](CCCNC(=N)N)NC(=O)[C@H](C)NC(=O)[C@H](C)NC(=O)[C@H](CCC(N)=O)NC(=O)[C@H](CCC(=O)O)NC(=O)[C@H](CCC(=O)O)NC(=O)[C@H](CC(C)C)NC(=O)[C@H](Cc1ccc(O)cc1)NC(=O)[C@H](CO)NC(=O)[C@H](CO)NC(=O)[C@@H](NC(=O)[C@H](CC(=O)O)NC(=O)[C@H](CO)NC(=O)[C@@H](NC(=O)[C@H](Cc1ccccc1)NC(=O)[C@@H](NC(=O)CNC(=O)[C@H](CCC(=O)O)NC(=O)[C@H](C)NC(=O)CCc1c[nH]cn1)[C@@H](C)O)[C@@H](C)O)C(C)C)C(=O)N[C@@H](C)C(=O)N[C@@H](Cc1c[nH]c2ccccc12)C(=O)N[C@@H](CC(C)C)C(=O)N[C@H](C(=O)N[C@@H](CCCNC(=N)N)C(=O)NCC(=O)N[C@@H](CCCNC(=N)N)C(=O)N[C@@H](CCCCNC(=O)COCCOCCNC(=O)COCCOCCNC(=O)CC[C@H](NC(=O)[C@H]1CC[C@H](CNC(=O)CCCCCCCCCCCCCCCCCCC(=O)O)CC1)C(=O)O)C(=O)O)C(C)C` [Example 9, N-epsilon37-[2-(2-{2-[2-(2-{2-[(S)-4-Carboxy-4-({trans-4-[(19-carboxy-nonadecanoylamino)methyl]cyclohexanecarbonyl}amino)butyrylamino]ethoxy}ethoxy)acetylamino]ethoxy}ethoxy)acetyl][DesaminoHis7,Glu22,Arg26,Arg34,Lys37]GLP-1-(7-37)], the EC50 is 0.5 nM on human GLP-1 receptor and 800 to 1500 nM in assay [1].
The matching figures for `CC[C@H](C)[C@H](NC(=O)[C@H](Cc1ccccc1)NC(=O)[C@H](CCC(=O)O)NC(=O)[C@H](CCCNC(=N)N)NC(=O)[C@H](C)NC(=O)[C@H](C)NC(=O)[C@H](CCC(N)=O)NC(=O)[C@H](CCC(=O)O)NC(=O)[C@H](CCC(=O)O)NC(=O)[C@H](CCCCNC(=O)COCCOCCNC(=O)CC[C@H](NC(=O)CC[C@H](NC(=O)CCCCCCCCCCCNC(=O)CCCS(=O)(=O)NC(=O)CCCCCCCCCCCCCCCc1nnn[nH]1)C(=O)O)C(=O)O)NC(=O)[C@H](Cc1ccc(O)cc1)NC(=O)[C@H](CO)NC(=O)[C@H](CO)NC(=O)[C@@H](NC(=O)[C@H](CC(=O)O)NC(=O)[C@H](CO)NC(=O)[C@@H](NC(=O)[C@H](Cc1ccccc1)NC(=O)[C@@H](NC(=O)CNC(=O)[C@H](CCC(=O)O)NC(=O)C(C)(C)NC(=O)[C@@H](N)Cc1c[nH]cn1)[C@@H](C)O)[C@@H](C)O)C(C)C)C(=O)N[C@@H](CCC(=O)O)C(=O)N[C@@H](Cc1c[nH]c2ccccc12)C(=O)N[C@@H](CC(C)C)C(=O)N[C@H](C(=O)N[C@@H](CCCCN)C(=O)NCC(=O)N[C@@H](CCCNC(=N)N)C(=O)N1CCC[C@H]1C(N)=O)C(C)C` [Example 11, N-epsilon20-[2-(2-{2-[(S)-4-Carboxy-4-((S)-4-carboxy-4-{12-[4-(16-(1H-tetrazol-5-yl)hexadecanoylsulfamoyl)butyrylamino]dodecanoylamino}butyrylamino)butyrylamino]ethoxy}ethoxy)acetyl][Aib8,Lys20,Glu22,Arg26,Glu30,Pro37]GLP-1-(7-37)amide] (H-H[Aib]EGTFTSDVSSYK([AEEA-γGlu-γGlu-12Ado-X1])EEQAAREFIEWLVKGRP-NH2): 0.61 nM and 1 to 100 nM.
The like results for `CC[C@H](C)[C@H](NC(=O)[C@H](Cc1ccccc1)NC(=O)[C@H](CCC(=O)O)NC(=O)[C@H](CCCNC(=N)N)NC(=O)[C@H](C)NC(=O)[C@H](C)NC(=O)[C@H](CCC(N)=O)NC(=O)[C@H](CCC(=O)O)NC(=O)[C@H](CCC(=O)O)NC(=O)[C@H](CC(C)C)NC(=O)[C@H](Cc1ccc(O)cc1)NC(=O)[C@H](CO)NC(=O)[C@H](CO)NC(=O)[C@@H](NC(=O)[C@H](CC(=O)O)NC(=O)[C@H](CO)NC(=O)[C@@H](NC(=O)[C@H](Cc1ccccc1)NC(=O)[C@@H](NC(=O)CNC(=O)[C@H](CCC(=O)O)NC(=O)C(C)(C)NC(=O)[C@@H](N)Cc1c[nH]cn1)[C@@H](C)O)[C@@H](C)O)C(C)C)C(=O)N[C@@H](C)C(=O)N[C@@H](Cc1c[nH]c2ccccc12)C(=O)N[C@@H](CC(C)C)C(=O)N[C@H](C(=O)N[C@@H](CCCNC(=N)N)C(=O)NCC(=O)N[C@@H](CCCNC(=N)N)C(=O)N[C@@H](CCCCNC(=O)COCCOCCNC(=O)CC[C@H](NC(=O)CC[C@H](NC(=O)CCCCCCCCCCCNC(=O)CCCS(=O)(=O)NC(=O)CCCCCCCCCCCCCCCc1nnn[nH]1)C(=O)O)C(=O)O)C(N)=O)C(C)C` [Example 12, N-epsilon37-[2-(2-{2-[(S)-4-Carboxy-4-((S)-4-carboxy-4-{12-[4-(16-(1H-tetrazol-5-yl)hexadecanoylsulfamoyl)butyrylamino]dodecanoylamino}butyrylamino)butyrylamino]ethoxy}ethoxy)acetyl][Aib8,Glu22,Arg26,Arg34,Lys37]GLP-1-(7-37)amide] were, in that order, 1.8 nM and 800 to 1500 nM.
The matching figures for `CC[C@H](C)[C@H](NC(=O)[C@H](Cc1ccccc1)NC(=O)[C@H](CCC(=O)O)NC(=O)[C@H](CCCNC(=N)N)NC(=O)[C@H](C)NC(=O)[C@H](C)NC(=O)[C@H](CCC(N)=O)NC(=O)[C@H](CCC(=O)O)NC(=O)[C@H](CCC(=O)O)NC(=O)[C@H](CC(C)C)NC(=O)[C@H](Cc1ccc(O)cc1)NC(=O)[C@H](CO)NC(=O)[C@H](CO)NC(=O)[C@@H](NC(=O)[C@H](CC(=O)O)NC(=O)[C@H](CO)NC(=O)[C@@H](NC(=O)[C@H](Cc1ccccc1)NC(=O)[C@@H](NC(=O)CNC(=O)[C@H](CCC(=O)O)NC(=O)[C@H](C)NC(=O)CCc1c[nH]cn1)[C@@H](C)O)[C@@H](C)O)C(C)C)C(=O)N[C@@H](C)C(=O)N[C@@H](Cc1c[nH]c2ccccc12)C(=O)N[C@@H](CC(C)C)C(=O)N[C@H](C(=O)N[C@@H](CCCNC(=N)N)C(=O)NCC(=O)N[C@@H](CCCNC(=N)N)C(=O)N[C@@H](CCCCNC(=O)COCCOCCNC(=O)CC[C@H](NC(=O)CC[C@H](NC(=O)CCCCCCCCCCCNC(=O)CCCS(=O)(=O)NC(=O)CCCCCCCCCCCCCCCc1nnn[nH]1)C(=O)O)C(=O)O)C(N)=O)C(C)C` [Example 13, N-epsilon37-[2-(2-{2-[(S)-4-Carboxy-4-((S)-4-carboxy-4-{12-[4-(16-(1H-tetrazol-5-yl)hexadecanoylsulfamoyl)butyrylamino]dodecanoylamino}butyrylamino)butyrylamino]ethoxy}ethoxy)acetyl][DesaminoHis7,Glu22,Arg26,Arg34,Lys37]GLP-1-(7-37)amide]: 1.97 nM and 100 to 150 nM.
